Experimental data published in publication PMC9144492, “New Screening Protocol for Effective Green Solvents Selection of Benzamide, Salicylamide and Ethenzamide” (Molecules, 2022).

Experiments:
[1] = solid residues analysis after shake-flask (DSC, FTIR-ATR); format: physicochemical; settings: sediments after shake-flask in water and organic solvents, FTIR-ATR and literature
Excerpt: The equilibrium in the solid-liquid saturated systems is governed not only by the properties of solvents but also by the solid state including polymorphic or pseudopolymorphic transformations as well as solvates formation. […] For this reason, the sediments collected after the shake-flask experiments for water and studied organic solvents were examined using differential scanning calorimetry (DSC) and Fourier transform infrared spectroscopy–attenuated total reflectance (FTIR-ATR) techniques. The detailed characteristics of solid residues were provided in supplementary materials (see Figures S5–S10). In the case of solvate formation or polymorphic transformation, the absorption band shifts on the IR spectra are often related to new hydrogen bonding patterns. In the case of DSC thermograms, new phases can be detected by observing additional signals due to the heat transfer associated with polymorphic transition or pseudo-polymorph transformations. […] This conclusion is in good accord with already reported observation. According to Ouyang et al. (2019) benzamide solid form is not altered in contact with such solvents as water, methanol, ethanol, 1-propanol, isopropanol, 1-butanol, isobutanol, methyl acetate, ethyl acetate, butyl acetate, acetonitrile and acetone. In the case of salicylamide, the only polymorphic transformation observed so far was with the use of high pressure. […]
The solid residues obtained after “shake-flask” procedure were dried on air and used for IR spectrophotometric and DSC measurements. Infrared spectra were recorded using PerkinElmer (Waltham, MA, USA) spectrophotometer equipped with a diamond attenuated total reflection (ATR) device. DSC thermograms were recorded using DSC 6000 Perkin Elmer (Waltham, MA, USA) calorimeter (heating rate: 5 K/min, nitrogen flow: 20 mL/min) calibrated using indium and zinc reference standards provided by the manufacturer.

[2] = shake-flask solubility in aqueous binary mixtures of DMSO, DMF and 4FM; format: physicochemical; settings: aqueous 4FM mixture, 4FM mole fraction 0.6; room temperature (Figure 4)
Method: In this study, the “shake-flask” procedure used in the previous studies was applied and it consists of the following steps. First, the mixtures (suspensions) containing saturated solution and undissolved solids were prepared in glass screw test tubes. Then the mixtures were incubated and agitated for 24 h at controlled temperature (298.15, 303.15, 308.15, or 313.15 K) and 60 rpm using Orbital Shaker ES-20/60 (Biosan, Riga, Latvia). At the next step, the temperature was still controlled, however, the agitation was turned off and suspensions were let to settle down for an hour. Then, the supernatant was filtrated using 0.22 μm PTFE syringe membrane filter. Nextly, 0.1 mL of the filtrate was diluted with 2 mL of methanol. The samples prepared in this way were protected against crystallization, as the concentration was low. 0.5 mL of the filtrate was used for density measurements. All equipment including automatic pipette tips, membrane filters, and syringes were preheated at the measurement temperature in order to avoid the solute precipitation. All “shake-flask” experiments were carried out in triplicate. The concentration in the samples was determined spectrophotometrically using the calibration curve method. […] All UV spectra were recorded using an A360 UV-VIS spectrophotometer (AOE Instruments, Shanghai, China).

[3] = COSMO-RS solubility computation; settings: acetic acid

Row | Compound | phase change of the solid in saturated solutions (polymorph / solvate) [1] | molar fraction solubility (xS) [2] [molar fraction] | mole fraction error of COSMO-RS computed solubility versus experiment [3] [%]
1 | NC(=O)c1ccccc1 [benzamide] | do not show a tendency to undergo phase changes | – | –
2 | CCOc1ccccc1C(N)=O [ethenzamide] | do not show a tendency to undergo phase changes | – | –
3 | NC(=O)c1ccccc1O [salicylamide] | do not show a tendency to undergo phase changes | 0.379 | −60
